These results are taken from publication PMC13183915, “A platinum butterfly effect: small changes turn an anticancer drug into a non-toxic metalloantibiotic with in vivo efficacy” (npj Antimicrobials and Resistance, 2026).

≈ marks a conversion by molar mass, not a printed value. Where two headings read alike, the source gives them in different places.

The test system of one assay is E. coli (NCTC 13476). Kind of assay: MIC, E. coli NCTC 13476 (with or without PMBN). The class given is cell-based.
The subject of the next assay is S. aureus (CCUG 62707). In words: MIC of COD ligand and Pt precursor, S. aureus CCUG 62707. The class given is cell-based.
Assay [1] deals with methicillin-resistant S. aureus (MRSA) COL. Kind of assay: MIC assay, MRSA COL. The class given is cell-based, Staphylococcus aureus. Particulars: MRSA COL.
The next assay has as its system Escherichia coli W3110. Kind of assay: MIC assay, E. coli. It counts as cell-based. Particulars: E. coli, Table S2.
The next assay relates to Bacillus subtilis MW168. Kind of assay: MIC assay, B. subtilis MW168. It counts as cell-based. Particulars: B. subtilis MW168.
The test system of assay [2] is methicillin-sensitive Staphylococcus aureus (MSSA), clinical isolate. Kind of assay: MIC assay, MSSA clinical isolate. It counts as cell-based. Particulars: MSSA clinical isolate.
Assay [3] has as its system 36th Passage S.aureus ATCC 29213 in the presence of Pt-1. Kind of assay: microbe, parasite or virus in culture. It counts as cell-based. Particulars: Staphylococcus aureus, ATCC29213. As to the method: (§1) The MICs of the passaged cultures were determined every 3 days and compared to that of wild type S. aureus ATCC 29213. MIC changes were recorded for 36 passages.
A further assay has as its system MSSA ATCC 29213. In words: Broth microdilution MIC, MSSA ATCC 29213. The class given is cell-based, S. aureus. Particulars: Staphylococcus aureus. How it is done: The data is given in supporting information (Table S5). Before starting the experiment, a single colony was picked from MHA plate, inoculated in MHBII and incubated overnight at 37 °C with shaking for 18–24 h to get the starter culture. Antibiotic susceptibility testing was conducted according to the CLSI (Clinical & Laboratory Standards Institute) guidelines using the broth microdilution assay. 10 mg/mL stock solutions of test compounds were prepared in DMSO. Bacterial cultures were inoculated in MHBII and optical density (OD) was measured at 600 nm, followed by dilution to achieve ~10^6 CFU/mL. The compounds were tested from 64 to 0.5 mg/L in two-fold serial diluted fashion with 2.5 μL of each concentration added to well of a 96-well round bottom microtiter plate. Later, 97.5 μL of bacterial suspension was added to each well containing either test compound or appropriate controls. […] The MIC is defined as the lowest concentration of the compound at which there is absence of visible growth. For each test compound, MIC determinations were carried out independently three times using duplicate samples.
For orientation: Broth dilution looks for growth in wells or tubes with falling amounts of substance.

Assay [4] concerns S. aureus ATCC 29213. In words: Drug interaction study (chequerboard assay). It counts as cell-based. Particulars: for MIC: Staphylococcus aureus, ATCC29213; for FIC B: antibiotic in combination with Pt1 / alone; for FIC (FICA+FICB) / Interference: combination with Pt1; for Interference: synergistic ≤0.5, indifferent >0.5 to 4, antagonistic >4. As to the method:
All compounds were freshly prepared for the experiment. […] Following incubation, the fractional inhibitory concentration index (FICI) was calculated with the formula FICI = […], whereby FICA = MIC of drug A in combination/MIC of drug A alone and FICB = MIC of drug B in combination/MIC of drug B alone. A drug combination is considered synergistic when ∑FICI is ≤0.5, indifferent when ∑FICI is >0.5 to 4, and antagonistic when ∑FICI is >4.

The test system of assay [5] is S. aureus ATCC 29213. Kind of assay: Post antibiotic effect (PAE). The class given is cell-based. Particulars: for Time for 1 log10 increase in bacterial cfu count: 1 h exposure. How it is done: Post antibiotic effect (PAE) was determined as follows. […] Following incubation, cultures were centrifuged and washed twice with pre-warmed MHBII to remove any traces of antibiotics. Finally, cells were resuspended in drug-free MHBII and incubated further at 37 °C. Samples were taken every 1 h, serially diluted, and plated on tryptic soy agar (TSA) for enumeration of CFU. […] CFU observed immediately after the removal of the drug, and C in a similarly treated drug-free control.

Assay [6] relates to 36th Passage S.aureus ATCC 29213 in the presence of Levofloxacin. In words: Antibiogram of strain passaged with levofloxacin. Particulars: Staphylococcus aureus, ATCC29213. The class given is cell-based. How it is done:
as §1

For the next assay, the system named is B. subtilis 168CA. Kind of assay: ROS scavenger assay (modified MIC assay). The class given is cell-based, Bacillus subtilis. As to the method:
LB media were prepared to contain either 10 mM tiron, 150 mM thiourea, 10 mM tiron and 150 mM thiourea, or no […]. Serial two-fold dilutions of the different antibiotics were prepared in the respective media and transferred to 96-well plates. […] The OD600 was meassured in a BMG Clariostar Plus plate reader.

Where [7] appears, read: S.aureus ATCC 29213 (unpassaged), Table S9, read-out: MIC.
[8] abbreviates: compound alone, Table S8, read-out: MIC.

For `C1=CCCC=CCC1` [1,5-Cyclooctadiene, 1,5-cyclooctadiene], the MIC in the assay with E. coli (NCTC 13476) (Escherichia coli, NCTC13476) was more than 200 µM; in the assay with S. aureus (CCUG 62707) (Staphylococcus aureus, CCUG62707), more than 200 µM.

As for `N.N.O=C([O-])C1(C(=O)[O-])CCC1.[Pt+2]` [Carboplatin], the MIC (in assay [1]; against Escherichia coli W3110; in the assay on Bacillus subtilis MW168; in [2]) was more than 100 µM each time.

Regarding `CC(C)(O/N=C(\C(=O)N[C@@H]1C(=O)N2C(C(=O)[O-])=C(C[n+]3ccccc3)CS[C@H]12)c1csc(N)n1)C(=O)O` [Ceftazidime], the results for the MIC (in assay [3]; in the assay on MSSA ATCC 29213 (setting [7]); with S. aureus ATCC 29213 [4] (setting [8])) were 16 µg/mL (≈ 29.3 µM), 16 µg/mL (≈ 29.3 µM) and 16 µg/mL, respectively. In the assay on S. aureus ATCC 29213 [4], the “FIC B” value is given as 1. Moreover, the “FIC (FICA+FICB)” value in the assay with S. aureus ATCC 29213 [4] is on record as 2. For the same molecule, the Interference result with S. aureus ATCC 29213 [4] was “no interaction”.

`CCCCCCCCCC(=O)N[C@@H](Cc1c[nH]c2ccccc12)C(=O)N[C@H](CC(N)=O)C(=O)N[C@@H](CC(=O)O)C(=O)N[C@@H]1C(=O)NCC(=O)N[C@@H](CCCN)C(=O)N[C@@H](CC(=O)O)C(=O)N[C@H](C)C(=O)N[C@@H](CC(=O)O)C(=O)NCC(=O)N[C@H](CO)C(=O)N[C@@H]([C@H](C)CC(=O)O)C(=O)N[C@@H](CC(=O)c2ccccc2N)C(=O)O[C@@H]1C` [Daptomycin]: in assay [3], the MIC was 1 µg/mL (≈ 0.617 µM). For the same molecule, in the assay with MSSA ATCC 29213 (setting [7]), the MIC was found to be 1 µg/mL (≈ 0.617 µM). For the same molecule, the MIC in the assay on S. aureus ATCC 29213 [4] (setting [8]) turned out to be 1 µg/mL. Besides, in the assay on S. aureus ATCC 29213 [4], the “FIC B” value amounted to 1, the “FIC (FICA+FICB)” value came out at 2 and the Interference entry is listed as “no interaction”.

As to `CNC(C)C1CCC(N)C(OC2C(N)CC(N)C(OC3OCC(C)(O)C(NC)C3O)C2O)O1` (stereo not drawn) [Gentamicin], in assay [3], the MIC amounted to 0.5 µg/mL (≈ 1.05 µM). In addition, the MIC in the assay on MSSA ATCC 29213 (setting [7]) was found to be 0.25 µg/mL (≈ 0.523 µM). Besides, the MIC in the assay with S. aureus ATCC 29213 [4] (setting [8]) is 0.25 µg/mL. Besides, in the assay on S. aureus ATCC 29213 [4], the “FIC B” value is 1, the “FIC (FICA+FICB)” value is 2 and the Interference entry is “no interaction”.

In the case of `C[C@H]1COc2c(N3CCN(C)CC3)c(F)cc3c(=O)c(C(=O)O)cn1c23` [Levofloxacin], the PAE with S. aureus ATCC 29213 [5] (1x MIC) is on record as ~ 0.5 h; with S. aureus ATCC 29213 [5] (5x MIC), ~ 1.5 h; in the assay on S. aureus ATCC 29213 [5] (10x MIC), ~ 1.5 h; with S. aureus ATCC 29213 [5] (10x MIC, listed as levofloxacin), 1.5 h. Besides, the “Time for 1 log10 increase in bacterial cfu count” value with S. aureus ATCC 29213 [5] (1x MIC) is on record as ~ 3 h; in the assay with S. aureus ATCC 29213 [5] (5x MIC), ~ 4 h; with S. aureus ATCC 29213 [5] (10x MIC) it was ~ 4 h. Besides, the MIC in assay [3] is 0.25 µg/mL (≈ 0.692 µM); with MSSA ATCC 29213 (setting [7]) it was 0.25 µg/mL (≈ 0.692 µM); in assay [6], 32 µg/mL (≈ 88.6 µM); in the assay on S. aureus ATCC 29213 [4] (setting [8]) it was 0.25 µg/mL. Further, the “FIC B” value in the assay with S. aureus ATCC 29213 [4] stood at 1. The “FIC (FICA+FICB)” value in the assay on S. aureus ATCC 29213 [4] is listed as 2. Also, the Interference result in the assay with S. aureus ATCC 29213 [4] was “no interaction”.

For `CC(=O)NC[C@H]1CN(c2ccc(N3CCOCC3)c(F)c2)C(=O)O1` [Linezolid], the MIC in [3] was 2 µg/mL (≈ 5.93 µM). The MIC with MSSA ATCC 29213 (setting [7]) stood at 2 µg/mL (≈ 5.93 µM). Further, the MIC in the assay on S. aureus ATCC 29213 [4] (setting [8]) is 2 µg/mL. Also, in the assay on S. aureus ATCC 29213 [4], the “FIC B” value was found to be 1, the “FIC (FICA+FICB)” value turned out to be 2 and the Interference entry is on record as “no interaction”.

As for `C[C@@H](O)[C@H]1C(=O)N2C(C(=O)O)=C(S[C@@H]3CN[C@H](C(=O)N(C)C)C3)[C@H](C)[C@H]12` [Meropenem], the MIC in assay [3] was found to be 0.25 µg/mL (≈ 0.652 µM); in the assay on MSSA ATCC 29213 (setting [7]), 0.25 µg/mL (≈ 0.652 µM); in assay [6], 0.125 µg/mL (≈ 0.326 µM); in the assay with S. aureus ATCC 29213 [4] (setting [8]), 0.25 µg/mL. The “FIC B” value in the assay on S. aureus ATCC 29213 [4] was 1. Also, the “FIC (FICA+FICB)” value with S. aureus ATCC 29213 [4] is 2. The Interference result in the assay on S. aureus ATCC 29213 [4] is reported as “no interaction”.

On to `CN(C)c1ccc(O)c2c1C[C@H]1C[C@H]3[C@H](N(C)C)C(O)=C(C(N)=O)C(=O)[C@@]3(O)C(O)=C1C2=O` [Minocycline], for which the MIC in assay [3] was determined as 0.125 µg/mL (≈ 0.273 µM). The MIC against MSSA ATCC 29213 was 0.0625 µg/mL (≈ 0.137 µM). Also, in the assay on S. aureus ATCC 29213 [4], the MIC came to 0.125 µg/mL, the “FIC B” value was 1, the “FIC (FICA+FICB)” value was found to be 2 and the Interference entry was “no interaction”.

As to `O=C1[O][Pt]2([NH][C@@H]3CCCC[C@H]3[NH]2)[O]C1=O` [Oxaliplatin], the MIC (in assay [1]; against Escherichia coli W3110; against Bacillus subtilis MW168; in assay [2]) was more than 100 µM in each case.

For the molecule `[Cl][Pt-2]([Cl])([Cl])[Cl].[K+].[K+]` [Pt K2PtCl4, K2PtCl4], the MIC with E. coli (NCTC 13476) (E. coli NCTC 13476) and in the assay on S. aureus (CCUG 62707) (S. aureus CCUG 62707) was more than 200 µM each time.

Take `CO[C@H]1/C=C/O[C@@]2(C)Oc3c(C)c(O)c4c(O)c(c(/C=N/N5CCN(C)CC5)c(O)c4c3C2=O)NC(=O)/C(C)=C\C=C\[C@H](C)[C@H](O)[C@@H](C)[C@@H](O)[C@@H](C)[C@H](OC(C)=O)[C@@H]1C` [Rifampicin]: the MIC in assay [3] came out at 0.0156 µg/mL (≈ 0.019 µM). This molecule gave an MIC with MSSA ATCC 29213 of 0.0156 µg/mL (≈ 0.019 µM). Besides, the MIC in the assay with S. aureus ATCC 29213 [4] (setting [8]) was found to be 0.0078 µg/mL. In the assay with S. aureus ATCC 29213 [4], the “FIC B” value was 1, the “FIC (FICA+FICB)” value is recorded as 2 and the Interference entry is given as “no interaction”.

For `OO` [hydrogen peroxide], the “MIC fold change (increase) with scavenger” value in the assay on B. subtilis 168CA (medium containing 10 mM tiron (superoxide scavenger)) was “not significantly affected”; against B. subtilis 168CA (medium containing 150 mM thiourea (hydroxyl radical scavenger)) it was 14 fold. Further, in the assay with B. subtilis 168CA (medium containing both tiron and thiourea), the “MIC fold change (increase) with scavengers” value is “no additive effect”.
